Marks after values point to notes of the source that are not given here.
Assay: Measurement of LogP values by HPLC on reversed phase columns (EEC directive 79/831 Annex V.A8)
Assay type: physicochemical
In short: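 LogP measured by reversed-phase HPLC following EEC directive 79/831 Annex V.A8. Lambda-max taken from UV spectra at 200–400 nm at chromatographic peak maxima; diastereoisomer values listed separately.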

Row | LogP | Compound
1 | 3.00[a] | CCC(C)C(C)N(C(=O)c1snc(N)c1Cl)C1CC1 (centres unmarked) [I-901]
2 | 2.25[a] | CC(C)CN(C(=O)c1snc(N)c1Cl)C1CC1 [I-902]
3 | 5.74[a] | O=C(Nc1ccc(Cl)cc1Cl)c1cc(N(Cc2ccccc2)Cc2ccccc2)ns1 [I-903]
4 | 5.03[a] | O=C(NCCc1ncc(C(F)(F)F)cc1Cl)c1cc(N(Cc2ccccc2)Cc2ccccc2)ns1 [I-904]
5 | 4.26[a] | N#Cc1ccccc1NC(=O)c1cc(N(Cc2ccccc2)Cc2ccccc2)ns1 [I-905]
6 | 5.68[a] | Cc1ccc(NC(=O)c2cc(N(Cc3ccccc3)Cc3ccccc3)ns2)cc1Cl [I-906]
7 | 6.25[a] | Cc1cc(C)c(CN(C(=O)c2cc(N(Cc3ccccc3)Cc3ccccc3)ns2)C2CC2)c(C)c1 [I-907]
8 | 3.48[a] | CCCC(c1ccccc1)N(C(=O)c1snc(N)c1Cl)C1CC1 (centres unmarked) [I-908]
9 | 2.28[a] | Nc1cc(C(=O)N(Cc2c(F)cccc2Cl)C2CC2)sn1 [I-909]
10 | 5.36[a] | O=C(c1cc(N(Cc2ccccc2)Cc2ccccc2)ns1)N(Cc1ccccc1)C1CC1 [I-910]
11 | 5.54[a] | O=C(c1cc(N(Cc2ccccc2)Cc2ccccc2)ns1)N(Cc1c(F)cccc1Cl)C1CC1 [I-911]
12 | 6.54[a] | CC(c1cc(Cl)cc(Cl)c1)N(C(=O)c1cc(N(Cc2ccccc2)Cc2ccccc2)ns1)C1CC1 (centres unmarked) [I-912]
13 | 3.37[a] | Nc1nsc(C(=S)NCC2CCCCC2)c1Cl [I-913]
14 | 2.08[a] | Cc1ccccc1NC(=O)c1snc(N)c1Cl [I-914]
15 | 2.28[a] | Cc1cccc(NC(=O)c2snc(N)c2Cl)c1 [I-915]
16 | 2.27[a] | Cc1ccc(NC(=O)c2snc(N)c2Cl)cc1 [I-916]
17 | 2.21[a] | Nc1nsc(C(=O)N(c2ccc(F)cc2)C2CC2)c1Cl [I-917]
18 | 4.10[a] | COc1ccc(CNc2nsc(C(=O)N(c3cc(F)cc(F)c3)C3CC3)c2Cl)cc1 [I-918]
19 | 2.01[a] | Nc1cc(C(=O)NCCc2ncc(C(F)(F)F)cc2Cl)sn1 [I-919]
20 | 2.35[a] | Cc1ccc(NC(=O)c2cc(N)ns2)cc1Cl [I-920]
21 | 4.02[a] | COc1ccc(CNc2nsc(C(=O)N(c3ccc(F)cc3F)C3CC3)c2Cl)cc1 [I-921]
22 | 3.85[a] | COc1ccc(CNc2nsc(C(=O)N(c3ccc(F)cc3)C3CC3)c2Cl)cc1 [I-922]

Row | LogP | Compound
23 | 2.44[a] | Cc1ccc(NC(=O)c2snc(N)c2Cl)c(C)c1 [I-923]
24 | 2.05[a] | Cc1cccc(C)c1NC(=O)c1snc(N)c1Cl [I-924]
25 | 2.27[a] | Cc1cccc(NC(=O)c2snc(N)c2Cl)c1C [I-925]
26 | 2.75[a] | Nc1nsc(C(=O)Nc2cccc3c2CCC3)c1Cl [I-926]
27 | 2.39[a] | Nc1nsc(C(=O)Nc2cccc3ccccc23)c1Cl [I-927]
28 | 5.36[a] | COc1ccc(CNc2nsc(C(=O)N(C3CC3)C(C)c3cc(Cl)cc(Cl)c3)c2Cl)cc1 (centres unmarked) [I-928]
29 | 4.80[a] | COc1ccc(CNc2nsc(C(=O)N(Cc3c(Cl)cccc3Cl)C3CC3)c2Cl)cc1 [I-929]
30 | 5.08[a] | COc1ccc(CNc2nsc(C(=O)N(Cc3ccc(Cl)cc3Cl)C3CC3)c2Cl)cc1 [I-930]
31 | 5.22[a] | COc1ccc(CNc2nsc(C(=O)N(C3CC3)C(C)c3ccc(Cl)cc3Cl)c2Cl)cc1 (centres unmarked) [I-931]
32 | 5.62[a] | CCC(c1ccc(Cl)cc1Cl)N(C(=O)c1snc(NCc2ccc(OC)cc2)c1Cl)C1CC1 (centres unmarked) [I-932]
33 | 4.44[a] | COc1ccc(CNc2nsc(C(=O)N(Cc3c(F)cccc3Cl)C3CC3)c2Cl)cc1 [I-933]
34 | 5.56[a] | COc1ccc(CNc2nsc(C(=O)N(Cc3ccc(Cl)cc3Cl)C3CCC3)c2Cl)cc1 [I-934]
35 | 5.45[a] | COc1ccc(CNc2nsc(C(=O)N(Cc3ccc(Cl)cc3Cl)CC3CC3)c2Cl)cc1 [I-935]
36 | 5.81[a] | CCC(c1cc(Cl)cc(Cl)c1)N(C(=O)c1snc(NCc2ccc(OC)cc2)c1Cl)C1CC1 (centres unmarked) [I-936]
37 | 3.08[a] | CC(C)N(Cc1ccc(Cl)cc1Cl)C(=O)c1cc(N)ns1 [I-937]
38 | 5.97[a] | CCC(C)C(C)N(C(=O)c1cc(N(Cc2ccccc2)Cc2ccccc2)ns1)C1CC1 (centres unmarked) [I-938]
39 | 5.90[a] | O=C(c1cc(N(Cc2ccccc2)Cc2ccccc2)ns1)N(Cc1c(Cl)cccc1Cl)C1CC1 [I-939]
40 | 6.30[a] | O=C(c1cc(N(Cc2ccccc2)Cc2ccccc2)ns1)N(Cc1ccc(Cl)cc1Cl)C1CC1 [I-940]
41 | 6.48[a] | CC(C)N(Cc1ccc(Cl)cc1Cl)C(=O)c1cc(N(Cc2ccccc2)Cc2ccccc2)ns1 [I-941]
42 | 6.79[a] | CC1(C)CC1N(Cc1ccc(Cl)cc1Cl)C(=O)c1cc(N(Cc2ccccc2)Cc2ccccc2)ns1 (centres unmarked) [I-942]
43 | 6.16[a] | O=C(c1cc(N(Cc2ccccc2)Cc2ccccc2)ns1)N(Cc1cc(Cl)cc(C(F)(F)F)c1)C1CC1 [I-943]
44 | 5.39[a] | COc1ccc(CNc2nsc(C(=O)N(Cc3ccc(Cl)cc3Cl)C(C)C)c2Cl)cc1 [I-944]

Row | LogP | Compound
45 | 5.87[a] | COc1ccc(CNc2nsc(C(=O)N(Cc3ccc(Cl)cc3Cl)C3CC3(C)C)c2Cl)cc1 (centres unmarked) [I-945]
46 | 4.91[a] | COc1ccc(CNc2nsc(C(=O)N(Cc3c(Cl)cccc3C(F)(F)F)C3CC3)c2Cl)cc1 [I-946]
47 | 5.11[a] | COc1ccc(CNc2nsc(C(=O)N(Cc3cc(Cl)cc(C(F)(F)F)c3)C3CC3)c2Cl)cc1 [I-947]
48 | 4.91[a] | COc1ccc(CNc2nsc(C(=O)N(C3CC3)C(C)c3cccc(C(F)(F)F)c3)c2Cl)cc1 (centres unmarked) [I-948]
49 | 4.83[a] | COc1ccc(CNc2nsc(C(=O)N(C3CC3)C(C)c3ccccc3C(F)(F)F)c2Cl)cc1 (centres unmarked) [I-949]
50 | 5.97[a] | O=C(NCCc1ncc(C(F)(F)F)cc1Cl)c1snc(N(Cc2ccccc2)Cc2ccccc2)c1Br [I-950]
51 | 6.35[a] | Cc1ccc(NC(=O)c2snc(N(Cc3ccccc3)Cc3ccccc3)c2Br)cc1Cl [I-951]
52 | 3.70[a] | CC(c1cc(Cl)cc(Cl)c1)N(C(=O)c1snc(N)c1Cl)C1CC1 (centres unmarked) [I-952]
53 | 3.50[a] | CC(c1ccc(Cl)cc1Cl)N(C(=O)c1snc(N)c1Cl)C1CC1 (centres unmarked) [I-953]
54 | 3.90[a] | CCC(c1ccc(Cl)cc1Cl)N(C(=O)c1snc(N)c1Cl)C1CC1 (centres unmarked) [I-954]
55 | 4.17[a] | CCC(c1cc(Cl)cc(Cl)c1)N(C(=O)c1snc(N)c1Cl)C1CC1 (centres unmarked) [I-955]
56 | 3.29[a] | CC(c1cccc(C(F)(F)F)c1)N(C(=O)c1snc(N)c1Cl)C1CC1 (centres unmarked) [I-956]
57 | 3.13[a] | CC(c1ccccc1C(F)(F)F)N(C(=O)c1snc(N)c1Cl)C1CC1 (centres unmarked) [I-957]
58 | 2.39[a] | Nc1nsc(C(=O)N(c2ccc(F)cc2F)C2CC2)c1Cl [I-958]
59 | 2.48[a] | Nc1nsc(C(=O)N(c2cc(F)cc(F)c2)C2CC2)c1Cl [I-959]
60 | 7.15[a] | O=C(Nc1ccc(Cl)cc1Cl)c1snc(N(Cc2ccccc2)Cc2ccccc2)c1Br [I-960]
61 | 3.72[a] | COc1ccc(CNc2nsc(C(=O)NCCc3ccc(F)cc3)c2Cl)cc1 [I-961]
62 | 4.08[a] | COc1ccc(CNc2nsc(C(=O)NCCc3ccc(Cl)cc3)c2Cl)cc1 [I-962]
63 | 3.74[a] | COc1ccc(CNc2nsc(C(=O)NCCc3ccccc3F)c2Cl)cc1 [I-963]
64 | 2.55[a] | Nc1nsc(C(=O)NCCc2ncc(C(F)(F)F)cc2Cl)c1Br [I-964]
65 | 2.88[a] | Cc1ccc(NC(=O)c2snc(N)c2Br)cc1Cl [I-965]
